US20110112114A1, “INHIBITORS OF SERINE PROTEASES, PARTICULARLY HEPATITIS C VIRUS NS3 PROTEASE” (priority 1999, published 2011)

Biological target: HCV NS3 serine protease (Hepatitis C virus genotype 1a, UniProt P27958)
Assay: biochemical
Conditions: Ki from rate vs. [inhibitor] plots, Morrison tight binding competitive inhibition fit; with or without NS4A; 30 C, pH 7.8
Description: Peptides EDVVabuCSMSY (Abu designates—aminobutyric acid), […], […] and EDVV AbuC-p-nitroanilide was purchased from AnaSpec Inc. (San Jose, Calif.).
Cleavage reactions were quenched by the addition of an equal volume of a mixture of 10% TFA: acetonitrile (1:1) and activity was assessed on a reversed phase HPLC column (Rainin C18 Microsorb-MV, […], 4.6×250 mm; 0-50% acetonitrile, 0.1% TFA@3.33% min) using a Hewlett Packard 1050 instrument with auto-injection and diode array detection at 210 nm and 280 nm (where appropriate). Peptide elution fragments were collected and identified by mass spectrometry and N-terminal sequence analysis. Fragment identity and concentration was further verified by authentic, synthesized products. Initial rates of cleavage were determined at <20% substrate conversion and catalytic parameters were determined assuming Michaelis-Menten kinetics using the MultiFit program (Day Computing, Cambridge, Mass.).
Spectrophotometric assays were run in a 96-well microtiter plate at 30 C, using a SpectraMax 250 reader (Molecular Devices, Sunnyvale, Calif.) with kinetic capability. Cleavage of EDVV AbuC-p-nitroanilide (5A-pNA) substrate was performed with or without NS4A in the same buffer used for HPLC assays at 30 C, and pNA release was monitored at 405 nm. The extinction coefficient of p-nitroaniline is independent of pH at values of 5.5. and above [Tuppy, H., et al., Hoppe-Seyler's Z. Physiol. Chem., 329, pp. 278-288 (1962)]; Raybuck and Luong, unpublished observations).
Kinetic constants for the rapid equilibrium ordered bisubstrate reaction were determined from rate vs. [4A], [EDVV Abuc-pNa]data by non-linear least squares fitting to equation 1 [Morrison, J. F. Biochim. Biophys. Acta., 185, pp. 269-286 (1969)] as described in the text. Kii and Kis valkues for peptidyl inhibitors were determined from rate vs. [inhibitor], [substrate] data and fitting to the equation for mixed inhibition:
rate=Vmax[S]/{Km(1+[I]/Kis0+[S](1+[I]/Kii)}
The commercial program KinetAsyst (State College, Pa.) was used for both procedures. Ki values were calculated from rate vs. [inhibitor] plots by a nonlinear least squares fit of the data to the equation of Morrison for tight binding competitive inhibition [Morrison, J. F. Biochim. Biophys. Acta., 185, pp. 269-286 (1969)]. The KineTic program (BioKin Ltd) was used for this procedure.
Ki values are express in μM. Category “A” indicates <1 μM inhibition; category “B” indicates 1-100 μM inhibition; category “C” indicates >100 μM.

HCV NS3 serine protease, sequence (P27958 1027-1208): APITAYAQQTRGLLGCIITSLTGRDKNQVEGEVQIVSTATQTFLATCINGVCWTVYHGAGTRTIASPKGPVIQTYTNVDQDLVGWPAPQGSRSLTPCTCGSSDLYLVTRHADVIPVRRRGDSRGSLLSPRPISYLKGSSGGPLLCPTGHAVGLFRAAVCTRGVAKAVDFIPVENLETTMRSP

Ki, 1 to 100 µM:
CCC(C=O)NC(=O)c1cc(OCc2ccccc2)ccc1N(C)C(=O)C(NC(=O)C(NC(=O)c1cnccn1)C(C)C)C(C)C (stereo not shown) [Compound 103]
CCC(C=O)NC(=O)c1cc(OCc2ccc(Cl)c(Cl)c2)ccc1NC(=O)C(NC(=O)C(NC(=O)c1cnccn1)C(C)C)C(C)C (stereo not shown) [Compound 107]
CCC(C=O)NC(=O)c1cc(OCc2ccccc2)ccc1NC(=O)C(NC(=O)C(NC(=O)c1cnccn1)C(C)C)C(C)C (stereo not shown) [Compound 101]
CCC(C=O)NC(=O)c1cc(OCc2ccccc2)ccc1NC(=O)C(NC(=O)c1c(O)ccc2ccccc12)C(C)C (stereo not shown) [Compound 104]
